Earlier results as cited in patent US20110237925A1, “MICRONEEDLE ARRAY CHIP, DEVICE AND PATCH FOR TRANSDERMAL DRUG DELIVERY UTILIZING THE SAME, AND PREPARATION METHOD THEROF” (priority 2010, published 2011).

Details: solid silicon microneedle array prepared through MEMS technology

increase of the transdermal permeability: four orders of magnitude
SMILES: O=C(O)CN(CC(=O)O)Cc1cc2c(cc1O)Oc1cc(O)c(CN(CC(=O)O)CC(=O)O)cc1C21OC(=O)c2ccccc21 [calcein]
